According to patent US11311522B1 (Cavion, Inc., priority 2018, dated 2022):

Assay: Crossover bioavailability study: adverse events
Type: in vivo, human
Details: Any Treatment (Original IR, MR1 or MR2), single 8 mg doses; subjects n (%), N = 15

Q: For `CC(C)c1ccc(CC(=O)N[C@H](C)c2ccc(OCC(F)(F)F)cn2)cc1` [CX-8998], which “Adverse Event: Abnormal dreams” value is on record?
A: The value was 3 (20%).

Q: What about the “Adverse Event: Any” value of the same compound?
A: Its value is 11 (73%).

Q: What about the “Adverse Event: Dizziness” value of the same compound?
A: Its value is 5 (33%).

Q: And the “Adverse Event: Euphoric mood” value?
A: Its value is 2 (13%).

Q: And the “Adverse Event: Feeling abnormal” value?
A: Its value is 4 (27%).

Q: And the “Adverse Event: Headache” value?
A: Its value is 5(33%).

Q: And the “Adverse Event: Nervous System” value?
A: The value was 10 (67%).

Q: And the “Adverse Event: Paresthesias” value?
A: The value was 7 (47%).

Q: What about the “Adverse Event: Psychiatric” value of the same compound?
A: The value was 5 (33%).
